# According to patent US20160067270A1, “USE OF GINSENOSIDE F2 FOR PROPHYLAXIS AND TREATMENT OF LIVER DISEASE” (priority 2014, published 2016):
# Experiments:
# Hepatic stellate cells = Hepatic stellate cells treated with TO901317 (real-time PCR and Western blotting); assay type: cell-based; settings: 30 μM, 30 minutes later 10 μM TO901317, culture 12 hours
# Experimental: Hepatic stellate cells were treated with 30 μM of ginsenoside F2, and 30 minutes later, further treated with 10 μM TO901317, followed by culture for 12 hours. FIGS. 5f and 5g show the results of real-time PCR and Western blotting of the cultured hepatic stellate cells.
# co-cultured hepatocytes = assay: Co-culture with ethanol: co-cultured hepatocytes (Western blotting, real-time PCR); assay type: cell-based, mice; settings: 100 mM ethanol 12 hours, then 30 μM for 6 or 12 hours
# Experimental: (§1) During the culture, they were treated with 100 mM ethanol for 12 hours, and then 30 μM ginsenoside F2 for 6 hours or 12 hours.
# isolated monocytes = assay: Real-time PCR of isolated hepatic monocytes of ethanol-fed mice; assay type: in vivo; settings: FIG. 6d
# From the text: (§2) Mice were fed with 3 g/kg of ethanol together with a normal diet every day for 2 weeks. In this regard, Group 1 (E+Veh) was fed with vehicle, and Group 2 (E+GF2) was fed with ginsenoside F2.
# (§3) Further, the isolated monocytes were subjected to real-time PCR. As a result, expression of the inflammatory cytokines TNF-α, IL-6, and IL-17 increased by alcohol was inhibited by ginsenoside F2, and expression of anti-inflammatory cytokine IL-10 was increased thereby (FIG. 6d). These effects are consistent with the results of ELISA of mouse serum (FIG. 6e).
# [1] = test system: human hepatocyte cell line HepG2A; assay: LXR-mediated fat synthesis in HepG2A (real-time PCR); assay type: cell-based
# Experimental: To examine a fat synthesis inhibition mechanism of ginsenoside F2, human hepatocyte cell line HepG2A was treated with 30 μM ginsenoside F2, and 30 minutes later, further treated with 10 μM TO901317, which induces fat synthesis as an LXR agonist stimulating fatty acid synthesis, followed by culture for 9 hours.
# Further, HepG2A was treated with ginsenoside F2 by varying its concentration from 0 μM to 100 μM, and cultured for 12 hours.
# male mice = assay: Measurement of serum ALT, AST, TG and total cholesterol levels in ethanol-fed mice; assay type: in vivo; settings: 50 mg/kg oral with 3 g/kg ethanol daily for 2 weeks
# Experimental: (§4) 50 mg/kg of ginsenoside F2 (indicated by GF2 in Drawing) dissolved in 3 g/kg of ethanol, together with a normal diet, were orally administered to 8-week-old male mice (weighing 25 g to 28 g) between 3 PM and 4 PM every day for 2 weeks. After 2 weeks, they were sacrificed, and the following experiment was performed.
# Blood was collected from mouse abdominal aorta and centrifuged using a centrifuge at 3,300 rpm for 10 minutes to separate only the serum. The levels of ALT (alanine aminotransferase) and AST ([…]) in the serum were measured using a kit of IDEXX Laboratories (USA) in accordance with the manufacturer's instructions by VetTEST (IDEXX, USA). Further, 50 mg of the hepatic tissue was excised and ground, and then a chloroform-methanol (2:1) solution was added thereto, followed by centrifugation. The lipid components contained in the hepatic tissue were extracted, and the levels of triglyceride (TG) and total cholesterol in the extract solution were measured using a kit of IDEXX Laboratories (USA) in accordance with the manufacturer's instructions by VetTEST.
# hepatic monocytes = assay: IL-10-deficient mice: hepatic monocytes (flow cytometry, real-time PCR); assay type: in vivo
# Experimental: (§5) 8-week-old IL-10-deficient male mice (weighing 25 g to 28 g) were orally administered with 3 g/kg ethanol and 50 mg/kg ginsenoside F2, together with a normal diet, every day for 2 weeks (E+GF2). A control group was fed with an equal amount of ethanol and vehicle instead of ginsenoside F2 (E+Veh). 2 weeks later, the sera, liver tissues, and hepatic monocytes were obtained from the mice by autopsy. Thereafter, in the same manner as in Example 1. (1), the serum ALT, AST, TG, and cholesterol levels were measured, and necrotic foci were examined in the liver tissue to count the number of necrotic foci in two sections of the liver. In the hepatic monocytes, macrophage and neutrophil expression levels were examined by flow cytometry using F4/80 or Gr1 antigen marker.
# [2] = test system: co-cultured hepatic stellate cells; assay: Co-culture with ethanol: co-cultured hepatic stellate cells; assay type: cell-based, mice; settings: 100 mM ethanol 12 hours, then 30 μM for 6 or 12 hours; FIG. 5d
# Experimental: as §1
# liver tissue = assay: Liver histological analysis (H&E, TUNEL, Oil-red O staining); assay type: in vivo, mice; settings: 50 mg/kg oral with 3 g/kg ethanol, 2 weeks
# Naive T cells = assay: Differentiation of naive T cells into IL-17-producing Th17 cells; assay type: cell-based, mice; settings: 0 μM to 30 μM
# Experimental: Naive T cells were isolated from mice, and treated with 5 ng/mL TGF-β1 and 20 ng/mL IL-6, and then cultured in a CD3/28 antibody-coated dish for 3.5 days to differentiate the cells into proinflammatory Th17 cells (T helper 17 cells). In this regard, the cells were also treated with ginsenoside F2 by varying its concentration (0 μM to 30 μM), and markers for Th17 cells were examined, and the results are shown in FIGS. 7a to 7c. N represents naive T cells treated with none of TGF-β1, IL-6, and ginsenoside F2.
# [3] = test system: hepatocytes separated from mouse liver; assay: Lipogenesis-related index in hepatocytes separated from mouse liver; assay type: in vivo; settings: EtOH+GF2 vs EtOH+Vehicle; FIG. 4a
# Experimental: as §4
# [4] = test system: hepatic stellate cells separated from mouse liver; assay: Lipogenesis-related index in hepatic stellate cells separated from mouse liver; assay type: in vivo; settings: EtOH+GF2 vs EtOH+Vehicle; FIG. 4b
# Experimental: as §4
# glioblastoma = settings: xenograft model in SD rats; Shin J Y et. al. 2012; cited from earlier work
# mouse serum = assay: ELISA of mouse serum (cytokines); assay type: in vivo; settings: compared with real-time PCR results; FIG. 6e
# From the text: as §2, §3
# liver tissues = assay: Western blotting of proteins extracted from the liver tissues; assay type: in vivo, mice; settings: FIG. 4c
# Experimental: as §4
# Expression of fat oxidation-inducing pAMPK was increased and expression of lipogenic SREBP1c and FAS was reduced by administration of ginsenoside F2.
# [5] = test system: monocytes isolated from the liver; assay: Flow cytometry of monocytes / inflammatory cells isolated from the liver of ethanol-fed mice; assay type: in vivo; settings: 3 g/kg ethanol daily for 2 weeks
# Experimental: as §2
# Thereafter, monocytes were isolated from the liver, and stained with the macrophage markers, CD11b and F4/80, followed by flow cytometry. As a result, treatment of ginsenoside F2 reduced a percentage of macrophage (FIG. 6a). Flow cytometry was also performed using the neutrophil markers CD11b and Gr-1. As a result, treatment of ginsenoside F2 reduced a percentage of neutrophil (FIG. 6b).
# Further, inflammatory cells in the liver were stained with regulatory T cell (Treg) markers, CD4, CD25, and Foxp3. As a result, treatment of ginsenoside F2 increased regulatory T cells, and decreased Th17 cells (IL-17 and CD4 positive) which are one of proinflammatory cells.
# [6] = test system: breast cancer stem cells (CSCs); settings: Mai T T et al. 2012; cited from earlier work
# [7] = test system: IL-10-deficient male mice; assay: IL-10-deficient mice: serum levels and necrotic foci of liver tissue; assay type: in vivo; settings: 50 mg/kg oral with 3 g/kg ethanol daily for 2 weeks
# Experimental: as §5
# [8] = 0 μM to 100 μM, cultured for 12 hours, FIG. 5f
# [9] = 30 μM, 30 minutes later 10 μM TO901317, culture 9 hours, real-time PCR, FIG. 5e
# [10] = 50 mg/kg, 2 weeks, flow cytometry, FIGS. 8d and 8e
# [11] = real-time PCR using monocytes, FIG. 8h
# [12] = 5 ng/mL TGF-β1 and 20 ng/mL IL-6, 3.5 days, FIGS. 7a and 7b
smiles,measurement,setting,value
CC(C)=CCC[C@](C)(O[C@@H]1O[C@H](CO)[C@@H](O)[C@H](O)[C@H]1O)[C@H]1CC[C@]2(C)[C@@H]1[C@H](O)C[C@@H]1[C@@]3(C)CC[C@H](O[C@@H]4O[C@H](CO)[C@@H](O)[C@H](O)[C@H]4O)C(C)(C)[C@@H]3CC[C@]12C [ginsenoside F2],expression of glutamate receptor mGluR1 or 5,Hepatic stellate cells,significantly increased
same,expression of lipogenic FAS,"co-cultured hepatocytes; Western blotting, FIG. 5b",decreased
same,expression of lipogenic SREBP1c,"co-cultured hepatocytes; Western blotting, FIG. 5b",decreased
same,expression of lipolytic pAMPK,"co-cultured hepatocytes; Western blotting, FIG. 5b",increased
same,expression of CB1R,"co-cultured hepatocytes; real-time PCR, FIG. 5c",reduced
same,expression of FAS,"co-cultured hepatocytes; real-time PCR, FIG. 5c",reduced
same,expression of SREBP1c,"co-cultured hepatocytes; real-time PCR, FIG. 5c",reduced
same,expression of anti-inflammatory cytokine IL-10,isolated monocytes,increased
same,expression of inflammatory cytokine IL-6 increased by alcohol,isolated monocytes,inhibited
same,expression of inflammatory cytokine IL-17 increased by alcohol,isolated monocytes,inhibited
same,expression of inflammatory cytokine TNF-α increased by alcohol,isolated monocytes,inhibited
same,concentration at which an excellent inhibitory effect on SREBP1c and FAS expression was observed,[1]; [8],≥ 40 µM
same,expression of FAS,[1]; [8],reduced
same,expression of SREBP1c,[1]; [8],reduced
same,expression of FAS increased by LXR agonist TO901317,[1]; [9],inhibit
same,expression of SREBP1c increased by LXR agonist TO901317,[1]; [9],inhibit
same,total cholesterol level increased by alcohol,male mice; FIG. 2,reduced
same,liver injury index ALT level,male mice; FIG. 2(a),did not significantly increase
same,AST level,male mice; FIG. 2(b),lower
same,"fatty liver index, TG level",male mice; FIG. 2(c),reduced to the normal level
same,other immune cells,"hepatic monocytes; 50 mg/kg, 2 weeks, FIG. 8f",no significant effects
same,CD4+CD25+Foxp3+ regulatory T cells,"hepatic monocytes; 50 mg/kg, 2 weeks, FIG. 8g",increased
same,expression of macrophage (F4/80),hepatic monocytes; [10],no significant effects
same,expression of neutrophil (Gr1),hepatic monocytes; [10],no significant effects
same,expression of Foxp3,hepatic monocytes; [11],increased
same,expression of inflammatory cytokine IL-6,hepatic monocytes; [11],increased
same,expression of inflammatory cytokine IL-17,hepatic monocytes; [11],increased
same,"expression of DAGL-α,β",[2],reduced
same,Triglyceride accumulation (Oil-red O staining),liver tissue; FIG. 3a,reduced
same,cell damage (TUNEL staining),liver tissue; FIG. 3a,reduced
same,ethanol-induced inflammation (H&E staining),liver tissue; FIG. 3a,reduced
same,TUNEL-positive cell death caused by alcohol administration (statistical analysis),liver tissue; FIG. 3b,remarkably reduced
same,triglycerides in the liver tissue (statistical analysis),liver tissue; FIG. 3c,remarkably reduced
same,IL-17-expressing Th17 cells (FACS),Naive T cells; [12],decreased
same,anti-inflammatory cytokine IL-10 (FACS),Naive T cells; [12],increased
same,Th17 cell-specific transcription factor RORγt,"Naive T cells; real-time PCR, FIG. 7c",decreased
same,Th17 cell-specific transcription factor STAT3,"Naive T cells; real-time PCR, FIG. 7c",decreased
same,expression of Abca1,"Naive T cells; real-time PCR, FIG. 7c",decreased
same,expression of ADH1,[3],significantly reduced
same,expression of CB1R,[3],significantly reduced
same,expression of CYP2e1,[3],significantly reduced
same,expression of FAS,[3],significantly reduced
same,expression of SREBP1c,[3],significantly reduced
same,"expression of DAGL-α,β",[4],significantly reduced
same,fatty acid amide hydrolase (FAAH) expression,[4],significantly increased
same,anti-cancer effects on glioblastoma,glioblastoma,exhibits anti-cancer effects
same,"cytokine effects (TNF-α, IL-6, IL-17, IL-10) by ELISA of mouse serum",mouse serum,consistent
same,Expression of fat oxidation-inducing pAMPK,liver tissues,increased
same,expression of lipogenic FAS,liver tissues,reduced
same,expression of lipogenic SREBP1c,liver tissues,reduced
same,Th17 cells (IL-17 and CD4 positive),[5]; E+GF2 vs E+Veh,decreased
same,"regulatory T cells (CD4, CD25, Foxp3)",[5]; E+GF2 vs E+Veh,increased
same,"percentage of macrophage (CD11b, F4/80)","[5]; E+GF2 vs E+Veh, FIG. 6a",reduced
same,"percentage of neutrophil (CD11b, Gr-1)","[5]; E+GF2 vs E+Veh, FIG. 6b",reduced
same,percentage of CD4 T cells,[5]; FIG. 6c,no significant effects
same,percentage of CD8 T cells,[5]; FIG. 6c,no significant effects
same,percentage of NK cells,[5]; FIG. 6c,no significant effects
same,percentage of NKT cells,[5]; FIG. 6c,no significant effects
same,cell apoptosis in breast cancer stem cells,[6],induces cell apoptosis accompanied by autophagy
same,ALT level,[7]; FIG. 8a,no significant effects
same,TG level,[7]; FIG. 8a,no significant effects
same,cholesterol level,[7]; FIG. 8a,no significant effects
same,necrotic foci of the liver tissue,[7]; FIGS. 8b and 8c,no great changes
